Test results taken from PubChem BioAssay AID1963831 (Molecular Pharmacology Branch, DTP, NCI, 2024).

System: 889142-216-R-J1-PDC complex spheroid viability
Assay: Anticancer human tumor 889142-216-R-J1-PDC patient-derived bladder carcinoma cell line growth inhibition [POLQ]
Details: for IC50: curve of first compound; for viability, T/C: stronger effect = lower value
Procedure, shortened: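 PDC + HUVEC + MSC complex spheroids; POLQ inhibitors ± partner drugs; top conc. at/near clinical Cmax, else 10 microM (SN-38 1 microM), half-log dilutions; 37 degrees C, 5% CO2.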

[1] = second compound 0.0316 µM, first compound 0.0316 µM
[2] = second compound 0.0316 µM, first compound 0.1 µM
[3] = second compound 0.0316 µM, first compound 0.316 µM
[4] = second compound 0.0316 µM, first compound 1 µM
[5] = second compound 0.0316 µM, first compound 3.16 µM
[6] = second compound 0.0316 µM, first compound 10 µM
[7] = second compound 0.1 µM, first compound 0.0316 µM
[8] = second compound 0.1 µM, first compound 0.1 µM
[9] = second compound 0.1 µM, first compound 0.316 µM
[10] = second compound 0.1 µM, first compound 1 µM
[11] = second compound 0.1 µM, first compound 3.16 µM
[12] = second compound 0.1 µM, first compound 10 µM
[13] = second compound 0.316 µM, first compound 0.0316 µM
[14] = second compound 0.316 µM, first compound 0.1 µM
[15] = second compound 0.316 µM, first compound 0.316 µM
[16] = second compound 0.316 µM, first compound 1 µM
[17] = second compound 0.316 µM, first compound 3.16 µM
[18] = second compound 0.316 µM, first compound 10 µM
[19] = second compound 1 µM, first compound 0.0316 µM
[20] = second compound 1 µM, first compound 0.1 µM
[21] = second compound 1 µM, first compound 0.316 µM
[22] = second compound 1 µM, first compound 1 µM
[23] = second compound 1 µM, first compound 3.16 µM
[24] = second compound 1 µM, first compound 10 µM
[25] = second compound 3.16 µM, first compound 0.0316 µM
[26] = second compound 3.16 µM, first compound 0.1 µM
[27] = second compound 3.16 µM, first compound 0.316 µM
[28] = second compound 3.16 µM, first compound 1 µM
[29] = second compound 3.16 µM, first compound 3.16 µM
[30] = second compound 3.16 µM, first compound 10 µM
[31] = second compound 10 µM, first compound 0.0316 µM
[32] = second compound 10 µM, first compound 0.1 µM
[33] = second compound 10 µM, first compound 0.316 µM
[34] = second compound 10 µM, first compound 1 µM
[35] = second compound 10 µM, first compound 3.16 µM
[36] = second compound 10 µM, first compound 10 µM
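Also: spheroids exposed to compounds for seven days.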
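For viability, T/C in this document: 100% = DMSO vehicle control viability.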

## C#Cc1c(F)ccc2cc(O)cc(-c3ncc4c(N5CC6CCC(C5)N6)nc(OCC56CCCN5CC(F)C6)nc4c3F)c12 (stereo not given) + Cc1cccc(N(C)C(=O)C2C(O)CCN2c2nc(C)cc(C(F)(F)F)c2C#N)c1
Second compound 0.0316 µM
  IC50: 6.08 µM
Second compound 0.1 µM
  IC50: 5.01 µM
Second compound 0.316 µM
  IC50: 5.26 µM
Second compound 1 µM
  IC50: 7.76 µM
Second compound 3.16 µM
  IC50: 4.97 µM
Second compound 10 µM
  IC50: 5.01 µM
[1]
  viability, T/C: 106%
[2]
  viability, T/C: 87.8%
[3]
  viability, T/C: 82.6%
[4]
  viability, T/C: 103%
[5]
  viability, T/C: 74.8%
[6]
  viability, T/C: 31.1%
[7]
  viability, T/C: 104%
[8]
  viability, T/C: 100%
[9]
  viability, T/C: 78.3%
[10]
  viability, T/C: 97.8%
[11]
  viability, T/C: 62%
[12]
  viability, T/C: 31.9%
[13]
  viability, T/C: 90.2%
[14]
  viability, T/C: 81.3%
[15]
  viability, T/C: 66.4%
[16]
  viability, T/C: 93.7%
[17]
  viability, T/C: 60.8%
[18]
  viability, T/C: 36.3%
[19]
  viability, T/C: 88.6%
[20]
  viability, T/C: 69.1%
[21]
  viability, T/C: 94%
[22]
  viability, T/C: 71.2%
[23]
  viability, T/C: 108%
[24]
  viability, T/C: 39.7%
[25]
  viability, T/C: 98.2%
[26]
  viability, T/C: 85.2%
[27]
  viability, T/C: 64.8%
[28]
  viability, T/C: 74%
[29]
  viability, T/C: 72.5%
[30]
  viability, T/C: 30.5%
[31]
  viability, T/C: 79.3%
[32]
  viability, T/C: 71.4%
[33]
  viability, T/C: 65.8%
[34]
  viability, T/C: 69.7%
[35]
  viability, T/C: 73%
[36]
  viability, T/C: 17.2%

## C=CC(=O)N1CCN(c2nc(=O)n(-c3c(C)ccnc3C(C)C)c3nc(-c4c(O)cccc4F)c(F)cc23)C(C)C1 (stereo not given) + Cc1cccc(N(C)C(=O)C2C(O)CCN2c2nc(C)cc(C(F)(F)F)c2C#N)c1
Second compound 0.0316 µM
  IC50: > 10 µM
Second compound 0.1 µM
  IC50: > 10 µM
Second compound 0.316 µM
  IC50: > 10 µM
Second compound 1 µM
  IC50: > 10 µM
Second compound 3.16 µM
  IC50: > 10 µM
Second compound 10 µM
  IC50: > 10 µM
[1]
  viability, T/C: 108%
[2]
  viability, T/C: 93.5%
[3]
  viability, T/C: 102%
[4]
  viability, T/C: 115%
[5]
  viability, T/C: 122%
[6]
  viability, T/C: 81.4%
[7]
  viability, T/C: 110%
[8]
  viability, T/C: 112%
[9]
  viability, T/C: 100%
[10]
  viability, T/C: 101%
[11]
  viability, T/C: 132%
[12]
  viability, T/C: 96.2%
[13]
  viability, T/C: 97.4%
[14]
  viability, T/C: 119%
[15]
  viability, T/C: 123%
[16]
  viability, T/C: 116%
[17]
  viability, T/C: 129%
[18]
  viability, T/C: 106%
[19]
  viability, T/C: 104%
[20]
  viability, T/C: 107%
[21]
  viability, T/C: 107%
[22]
  viability, T/C: 111%
[23]
  viability, T/C: 124%
[24]
  viability, T/C: 89.3%
[25]
  viability, T/C: 98.5%
[26]
  viability, T/C: 89.3%
[27]
  viability, T/C: 93.8%
[28]
  viability, T/C: 97.2%
[29]
  viability, T/C: 138%
[30]
  viability, T/C: 87.9%
[31]
  viability, T/C: 91.1%
[32]
  viability, T/C: 74.8%
[33]
  viability, T/C: 82.5%
[34]
  viability, T/C: 100%
[35]
  viability, T/C: 106%
[36]
  viability, T/C: 76.7%

## CC(C)n1c(=O)n(C)c2cnc3cc(F)c(-c4ccc(OCCCN5CCCCC5)nc4)cc3c21 + Cc1cccc(N(C)C(=O)C2C(O)CCN2c2nc(C)cc(C(F)(F)F)c2C#N)c1
Second compound 0.0316 µM
  IC50: 3.93 µM
Second compound 0.1 µM
  IC50: 3.63 µM
Second compound 0.316 µM
  IC50: 3.68 µM
Second compound 1 µM
  IC50: 3.73 µM
Second compound 3.16 µM
  IC50: 4.43 µM
Second compound 10 µM
  IC50: 2.19 µM
[1]
  viability, T/C: 83.1%
[2]
  viability, T/C: 75.4%
[3]
  viability, T/C: 89.5%
[4]
  viability, T/C: 84.4%
[5]
  viability, T/C: 58.1%
[6]
  viability, T/C: 14.7%
[7]
  viability, T/C: 87.9%
[8]
  viability, T/C: 78.6%
[9]
  viability, T/C: 77%
[10]
  viability, T/C: 66.8%
[11]
  viability, T/C: 59.3%
[12]
  viability, T/C: 15.5%
[13]
  viability, T/C: 88.9%
[14]
  viability, T/C: 82.6%
[15]
  viability, T/C: 70.3%
[16]
  viability, T/C: 81.6%
[17]
  viability, T/C: 55.6%
[18]
  viability, T/C: 12.8%
[19]
  viability, T/C: 75.5%
[20]
  viability, T/C: 97.5%
[21]
  viability, T/C: 101%
[22]
  viability, T/C: 75.9%
[23]
  viability, T/C: 57%
[24]
  viability, T/C: 15.5%
[25]
  viability, T/C: 80.6%
[26]
  viability, T/C: 87.9%
[27]
  viability, T/C: 77.5%
[28]
  viability, T/C: 98.9%
[29]
  viability, T/C: 65.5%
[30]
  viability, T/C: 12.7%
[31]
  viability, T/C: 70%
[32]
  viability, T/C: 66.3%
[33]
  viability, T/C: 68.5%
[34]
  viability, T/C: 52.7%
[35]
  viability, T/C: 49.5%
[36]
  viability, T/C: 12%

## CCc1cc2c(N3CCc4c(cc(Cn5ccnc5)cc4-c4cn(C)nc4C(F)(F)F)C3=O)ccnc2c(OC)n1 + Cc1cccc(N(C)C(=O)C2C(O)CCN2c2nc(C)cc(C(F)(F)F)c2C#N)c1
Second compound 0.0316 µM
  IC50: > 10 µM
Second compound 0.1 µM
  IC50: > 10 µM
Second compound 0.316 µM
  IC50: > 10 µM
Second compound 1 µM
  IC50: > 10 µM
Second compound 3.16 µM
  IC50: > 10 µM
Second compound 10 µM
  IC50: > 10 µM
[1]
  viability, T/C: 110%
[2]
  viability, T/C: 98.7%
[3]
  viability, T/C: 121%
[4]
  viability, T/C: 125%
[5]
  viability, T/C: 127%
[6]
  viability, T/C: 103%
[7]
  viability, T/C: 95.2%
[8]
  viability, T/C: 116%
[9]
  viability, T/C: 120%
[10]
  viability, T/C: 123%
[11]
  viability, T/C: 102%
[12]
  viability, T/C: 87.3%
[13]
  viability, T/C: 116%
[14]
  viability, T/C: 115%
[15]
  viability, T/C: 130%
[16]
  viability, T/C: 140%
[17]
  viability, T/C: 132%
[18]
  viability, T/C: 76.8%
[19]
  viability, T/C: 93%
[20]
  viability, T/C: 85.7%
[21]
  viability, T/C: 148%
[22]
  viability, T/C: 122%
[23]
  viability, T/C: 127%
[24]
  viability, T/C: 74.5%
[25]
  viability, T/C: 85.3%
[26]
  viability, T/C: 107%
[27]
  viability, T/C: 128%
[28]
  viability, T/C: 115%
[29]
  viability, T/C: 109%
[30]
  viability, T/C: 75.8%
[31]
  viability, T/C: 86.5%
[32]
  viability, T/C: 88%
[33]
  viability, T/C: 102%
[34]
  viability, T/C: 87.6%
[35]
  viability, T/C: 92.9%
[36]
  viability, T/C: 74.3%

## COc1cc2cc(C(=O)CCC(=O)O)sc2cc1OC + Cc1cccc(N(C)C(=O)C2C(O)CCN2c2nc(C)cc(C(F)(F)F)c2C#N)c1
Second compound 0.0316 µM
  IC50: > 10 µM
Second compound 0.1 µM
  IC50: > 10 µM
Second compound 0.316 µM
  IC50: > 10 µM
Second compound 1 µM
  IC50: > 10 µM
Second compound 3.16 µM
  IC50: > 10 µM
Second compound 10 µM
  IC50: > 10 µM
[1]
  viability, T/C: 85.5%
[2]
  viability, T/C: 127%
[3]
  viability, T/C: 89.6%
[4]
  viability, T/C: 99.1%
[5]
  viability, T/C: 104%
[6]
  viability, T/C: 76.6%
[7]
  viability, T/C: 76.5%
[8]
  viability, T/C: 101%
[9]
  viability, T/C: 92.7%
[10]
  viability, T/C: 115%
[11]
  viability, T/C: 104%
[12]
  viability, T/C: 90.6%
[13]
  viability, T/C: 109%
[14]
  viability, T/C: 92.6%
[15]
  viability, T/C: 72.3%
[16]
  viability, T/C: 104%
[17]
  viability, T/C: 132%
[18]
  viability, T/C: 74.5%
[19]
  viability, T/C: 100%
[20]
  viability, T/C: 114%
[21]
  viability, T/C: 97.9%
[22]
  viability, T/C: 96.9%
[23]
  viability, T/C: 102%
[24]
  viability, T/C: 66.4%
[25]
  viability, T/C: 96.8%
[26]
  viability, T/C: 85.8%
[27]
  viability, T/C: 89.7%
[28]
  viability, T/C: 94.4%
[29]
  viability, T/C: 104%
[30]
  viability, T/C: 78.9%
[31]
  viability, T/C: 108%
[32]
  viability, T/C: 88.5%
[33]
  viability, T/C: 78.5%
[34]
  viability, T/C: 80.1%
[35]
  viability, T/C: 72.3%
[36]
  viability, T/C: 65.6%
